In patent US9353082B2, “Pharmaceutical compounds” (BIAL—PORTELA & CA, S.A., priority 2008, dated 2016):

Key:
FAAH [1] = molecular target: T1, FAAH (Rattus norvegicus, UniProt P97612); experiment: In vitro FAAH activity in rat brain membranes, 3H-AEA substrate, % of control; type: biochemical, Wistar rats; details: low value = strong inhibitor; for FAAH 100 nM: 100 nM compound; for In Vitro FAAH activity, 100 nM: 100 nM test compound; for In Vitro 100 nM (FAAH activity, % of control): compound at 100 nM
T1 construct: Frozen brains (without cerebellum) from Wistar rats were used; from tissue; host or cells: Wistar rat brain (without cerebellum), washed membrane pellets
T1 sequence (P97612 1-579): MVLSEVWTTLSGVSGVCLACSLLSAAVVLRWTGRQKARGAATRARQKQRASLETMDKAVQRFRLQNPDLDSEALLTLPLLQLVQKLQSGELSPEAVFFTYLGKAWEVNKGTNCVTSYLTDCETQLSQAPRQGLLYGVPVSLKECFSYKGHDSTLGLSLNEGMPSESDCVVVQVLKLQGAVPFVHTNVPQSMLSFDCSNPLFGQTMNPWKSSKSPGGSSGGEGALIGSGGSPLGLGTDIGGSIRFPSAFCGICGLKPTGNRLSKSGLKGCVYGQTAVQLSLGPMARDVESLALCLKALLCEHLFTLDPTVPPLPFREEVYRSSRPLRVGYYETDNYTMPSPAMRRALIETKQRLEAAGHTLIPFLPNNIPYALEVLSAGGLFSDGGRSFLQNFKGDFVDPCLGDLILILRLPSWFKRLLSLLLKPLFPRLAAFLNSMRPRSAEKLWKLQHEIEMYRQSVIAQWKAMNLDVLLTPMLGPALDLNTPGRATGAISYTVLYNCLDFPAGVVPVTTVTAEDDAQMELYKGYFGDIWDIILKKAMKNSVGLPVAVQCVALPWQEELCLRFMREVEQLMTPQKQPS
How it was run: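 Wistar rat brain membranes (5 μg protein) preincubated 15 min at 37 °C with compound at 10 μM or 0.1 μM (0.1% DMSO), then 2 μM AEA including 3H-AEA with 0.1% BSA, Tris pH 7.6, 10 min. 3H-ethanolamine counted after charcoal stop; % of no-compound control after blank subtraction.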

carboxylesterase (CE) [2] = experiment: Carboxylesterase (CE) activity in mouse liver microsomes (LVms), p-nitrophenyl acetate; type: biochemical; details: 10 uM compound, read 10 min after substrate, remaining CE activity
Procedure: (§1) FAAH inhibition was determined as described above. Inhibition of monoacylglycerol lipase (MAGL) and carboxylesterase (CE) was performed according to the protocols described below. The controls for both in vitro and in vivo were the reaction mix minus the test compounds. Therefore, a low value in Table 2 below for the test compounds indicates a strong inhibitor.
(§2) CE activity measurement is based on the formation of p-nitrophenol from p-nitrophenyl acetate. Briefly, in 96-well plates 8 μg/ml of rat or mouse liver microsomes (LVms) were incubated with 10 μM FAAH inhibitors for 15 min and then the substrate, p-nitrophenyl acetate, was added to a final concentration of 1 mM. The plate was read at 405 nm 10 min after substrate addition for the appearance of p-nitrophenol using a spectrophotometer. The carboxylesterase activity in microsome extracts without inhibitor added were set at 100% as control and the remaining CE activities after incubation with inhibitors were calculated relative to the control.

carboxylesterase (CE) [3] = experiment: Carboxylesterase (CE) activity in rat liver microsomes (LVms), p-nitrophenyl acetate; type: biochemical; details: 10 uM compound, read 10 min after substrate, remaining CE activity
Procedure: as §1, §2

FAAH [4] = molecular target: T2, FAAH (Mus musculus, UniProt O08914); experiment: In vivo FAAH inhibition after oral dosing, remaining activity in liver homogenate (LVh, peripheral tissue); set-up: species or system NMRI mice; details: liver homogenate, 3 mg/kg, 8 h after dosing; low value = strong inhibitor
T2 construct: A fragment of liver, left lung lobe and brain without cerebellum were removed; from tissue; host or cells: male NMRI mice; brain (without cerebellum) and liver homogenates
T2 sequence (O08914 1-579): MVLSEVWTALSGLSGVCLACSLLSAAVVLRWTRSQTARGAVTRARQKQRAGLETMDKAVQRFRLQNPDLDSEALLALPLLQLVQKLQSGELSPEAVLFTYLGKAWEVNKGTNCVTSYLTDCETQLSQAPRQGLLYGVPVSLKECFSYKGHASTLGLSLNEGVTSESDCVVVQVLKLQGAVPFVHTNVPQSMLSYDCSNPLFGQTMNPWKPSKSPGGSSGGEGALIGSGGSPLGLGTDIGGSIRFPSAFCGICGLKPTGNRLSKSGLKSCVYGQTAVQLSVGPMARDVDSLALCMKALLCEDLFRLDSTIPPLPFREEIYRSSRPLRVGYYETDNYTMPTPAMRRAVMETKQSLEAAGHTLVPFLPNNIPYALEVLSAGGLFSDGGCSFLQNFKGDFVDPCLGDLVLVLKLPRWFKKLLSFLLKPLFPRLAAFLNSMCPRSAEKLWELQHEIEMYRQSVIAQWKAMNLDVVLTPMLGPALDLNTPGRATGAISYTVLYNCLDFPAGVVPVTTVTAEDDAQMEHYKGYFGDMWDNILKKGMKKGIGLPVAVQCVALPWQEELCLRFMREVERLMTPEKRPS
How it was run: (§3)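 Male NMRI mice, fasted overnight, got 30 or 3 mg/kg compound orally (0.5% CMC suspension or water) and were compared with vehicle controls. Brain (no cerebellum) and liver homogenates were incubated with 2 μM AEA plus 5 nM 3H-AEA at 37 °C, 10 min for brain and 7 min for liver. Remaining FAAH activity is % of vehicle after blank subtraction.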

FAAH [5] = molecular target: T2, FAAH; experiment: In vivo FAAH inhibition after oral dosing, remaining activity in brain homogenate (BRh, central nervous tissue); set-up: species or system NMRI mice; details: brain homogenate, 3 mg/kg, 8 h after dosing; low value = strong inhibitor
How it was run: as §3

[6] = rat brain membranes, 100 = no measurable inhibition

| Structure (SMILES) | FAAH 10 uM (FAAH [1]; 10 uM compound, rat brain membranes, 100 = no measurable inhibition) | In Vitro FAAH activity, 10 uM (FAAH [1]; 10 uM test compound) | CE Mou LVms 10 uM 10 min (carboxylesterase (CE) [2]) | CE Rat LVms 10 uM 10 min (carboxylesterase (CE) [3]) | FAAH 100 nM (FAAH [1]; [6]) | In Vitro FAAH activity, 100 nM (FAAH [1]) | In Vitro 100 nM (FAAH activity, % of control) (FAAH [1]; rat brain membranes) | In Vivo LVh 3 mg·kg 8 h (remaining FAAH activity, % of control) (FAAH [4]) | In Vivo BRh 3 mg·kg 8 h (remaining FAAH activity, % of control) (FAAH [5]) |
| --- | --- | --- | --- | --- | --- | --- | --- | --- | --- |
| COc1ccc(N(C)C(=O)n2cnc(-c3ccc4ccccc4c3)c2)cc1 [Compound 16, N-(4-methoxyphenyl)-N-methyl-4-(naphthalen-2-yl)-1H-imidazole-1-carboxamide] | 24.7 % of control | 24.7 % of control | 95.4 % of control | 87.5 % of control | – | – | – | – | – |
| O=C(NCCCCc1ccccc1)n1nnc2ccccc21 [Compound 85, N-(4-phenylbutyl)-1H-benzo[d][1,2,3]triazole-1-carboxamide] | – | – | 31 % of control | 33 % of control | 0.1 % of control | 0.1 % of control | – | – | – |
| CN(C(=O)n1nnc2cc(Br)ccc21)C1CCCCC1 [Compound 97, 5-bromo-N-cyclohexyl-N-methyl-1H-benzo[d][1,2,3]triazole-1-carboxamide] | – | – | 50.7 % of control | 41.1 % of control | 0 % of control | 0 % of control | – | – | – |
| CN(C(=O)n1cnc(-c2ccc(F)c(O)c2)c1)C1CCCCC1 [Compound 343, N-cyclohexyl-4-(4-fluoro-3-hydroxyphenyl)-N-methyl-1H-imidazole-1-carboxamide] | – | – | – | – | – | – | 44.7 % of control | 19.7 % of control | 95.5 % of control |
| CN(C(=O)n1cnc(-c2ccc(F)c(O)c2)c1)C1CCCC1 [Compound 344, N-cyclopentyl-4-(4-fluoro-3-hydroxyphenyl)-N-methyl-1H-imidazole-1-carboxamide] | – | – | – | – | – | – | 1.7 % of control | 2.1 % of control | 121.1 % of control |
| CC1(C)COCN1C(=O)n1cnc(-c2cccc(O)c2)c1 [Compound 347, (4,4-dimethyloxazolidin-3-yl)(4-(3-hydroxyphenyl)-1H-imidazol-1-yl)methanone] | – | – | – | – | – | – | 109.6 % of control | 24.5 % of control | 76.6 % of control |
